# Measured values from patent US20240307374A1, “FORMULATION OF FURIN INHIBITOR FOR INHALATION” (BP ASSET V, INC., priority 2021, published 2024).
# Structures can show the parent of a compound that is named as a salt. Marks after values point to notes of the source that are not given here.
# Experiments:
# Assay type in all cases: physicochemical
# [1] = Equilibrium solubility in pH buffers (pH 4.0-6.0) with pH adjustment; conditions: for S: solubility: with pH adjustment; for pH before adjustment (in brackets): 24 hours
# Description: In details, ˜5 mg of solids were suspended into 1 mL of each medium with dosing conc. at ˜5 mg/mL. Additional solids were added into the sample to generate suspension if clear solution was obtained. The suspension was equilibrated via stirring (1000 rpm) for 24 hours. The pH of the suspension was adjusted when the final pH shifted above 0.3, and the samples were stirred for another 1.5 hours after pH adjustment. The suspension was centrifuged to obtain precipitate and supernatants. Solubility, purity and pH were tested for the supernatants after filtration, and isolated precipitate was tested by XRPD.
# (§1) • 1. pH=3.0 buffer (50 mM HCl+KCl): Weigh 365.39 mg KCl into a 100 mL volumetric flask (VF), and add 0.1 mL 1M HCl into the VF, and dilute to volume with water. • 2. pH=4.0 buffer (50 mM citrate): Weigh 56.74 mg citric acid and 60.18 mg trisodium citrate into a 10 mL volumetric flask, and dilute to volume with water. • 3. pH=5.0 buffer (50 mM citrate) Weigh 11.12 mg citric acid and 95.38 mg trisodium citrate into a 10 mL volumetric flask, and dilute to volume with water. • 4. pH=6.0 buffer (50 mM citrate) Weigh 11.04 mg citric acid and 130.2 mg trisodium citrate into a 10 mL volumetric flask, and dilute to volume with water. • 5. pH=6.0 buffer (50 mM phosphate) Weigh 8.7 mg Na2HPO4 and 52.6 mg NaH2PO4 into a 10 mL volumetric flask, and dilute to volume with water. • 6. pH=7.0 buffer (50 mM phosphate) Weigh 23.47 mg Na2HPO4 and 43.34 mg NaH2PO4into a 10 mL volumetric flask, and dilute to volume with water. • 7. pH=8.0 buffer (50 mM phosphate) Weigh 31.64 mg Na2HPO4 and 67.18 mg NaH2PO4into a 10 mL volumetric flask, and dilute to volume with water.
# [2] = Grinding stability; conditions: ~30 mg ground manually in a mortar for about 5 minutes
# [3] = Equilibrium solubility in pH buffers (3.0-8.0), 20% captisol and water; conditions: 24 hrs; for S: solubility: RT
# Description: Additional solids were added into the sample to generate suspension if clear solution obtained. The suspension was equilibrated via stirring (1000 rpm). The suspension was centrifuged to obtain precipitate and supernatants.
# Solubility and pH were tested for the supernatants after filtration, and isolated precipitate was tested by XRPD.
# as §1
# [4] = DVS (dynamic vapor sorption) moisture uptake; conditions: for Moisture Uptake (DVS): 25° C.; for form change after DVS test (XRPD): XRPD before and after DVS
# Description: (FIG. 5). Sample weight decreased rapidly when humidity decreased from 10% to 0%, which might be caused by loss of crystalline water.
# DVS was measured via a SMS (Surface Measurement Systems) DVS Intrinsic.
# [5] = pH = 4.0 buffer (50 mM citrate)
# [6] = pH = 4.0 buffer (50 mM citrate), RT
# [7] = pH = 5.0 buffer (50 mM citrate)
# [8] = pH = 5.0 buffer (50 mM citrate), RT
# [9] = pH = 6.0 buffer (50 mM citrate)
# [10] = pH = 6.0 buffer (50 mM citrate), RT
# [11] = pH = 6.0 buffer (50 mM phosphate)
# [12] = pH = 6.0 buffer (50 mM phosphate), RT
# [13] = pH = 3.0 buffer (50 mM HCl + KCl)
# [14] = pH = 7.0 buffer (50 mM phosphate)
# [15] = pH = 8.0 buffer (50 mM phosphate)
compound,measurement,setting,value
CC(=O)NCC1CCN(Cc2cc(Oc3ccc(N4CCN(CCC(=O)O)CC4)nc3)nc(-c3cc(Cl)cc(Cl)c3)c2)CC1 [Fumarate Type A],Area % (purity of supernatant),[1]; [5],99.3 Area %
same,FC: form change (XRPD of precipitate),[1]; [5],4 (3/4/6/7/8: new Form 3/4/6/7/8)
same,"pH (final, after adjustment where adjusted)",[1]; [5],4.0
same,S: solubility,[1]; [6],3040 µg/mL
same,Area % (purity of supernatant),[1]; [7],99.4 Area %
same,FC: form change (XRPD of precipitate),[1]; [7],4 (3/4/6/7/8: new Form 3/4/6/7/8)
same,"pH (final, after adjustment where adjusted)",[1]; [7],4.9*
same,pH before adjustment (in brackets),[1]; [7],(4.1)
same,S: solubility,[1]; [8],19300 µg/mL
same,Area % (purity of supernatant),[1]; [9],98.6 Area %
same,FC: form change (XRPD of precipitate),[1]; [9],7 (3/4/6/7/8: new Form 3/4/6/7/8)
same,"pH (final, after adjustment where adjusted)",[1]; [9],6.1*
same,pH before adjustment (in brackets),[1]; [9],(5.0)
same,S: solubility,[1]; [10],240 µg/mL
same,Area % (purity of supernatant),[1]; [11],95.6 Area %
same,"pH (final, after adjustment where adjusted)",[1]; [11],6.2*
same,pH before adjustment (in brackets),[1]; [11],(4.6)
same,S: solubility,[1]; [12],90 µg/mL
same,crystallinity after grinding (XRPD),[2],decreased after grinding
same,pH of supernatant (final pH),"[3]; 20% Captisol (pH = 5.0, w/v)",4.3
same,S: solubility,"[3]; 20% Captisol (pH = 5.0, w/v)",29.6 mg/mL
same,FC: form change (XRPD of precipitate),[3]; H2O,4 (1/2/3/4/5: new Form 1/2/3/4/5)
same,pH of supernatant (final pH),[3]; H2O,3.8
same,S: solubility,[3]; H2O,1.85 mg/mL
same,FC: form change (XRPD of precipitate),[3]; [13],5 (1/2/3/4/5: new Form 1/2/3/4/5)
same,pH of supernatant (final pH),[3]; [13],3.5
same,S: solubility,[3]; [13],0.65 mg/mL
same,FC: form change (XRPD of precipitate),[3]; [5],4 (1/2/3/4/5: new Form 1/2/3/4/5)
same,pH of supernatant (final pH),[3]; [5],4.1
same,S: solubility,[3]; [5],3.45* mg/mL
same,FC: form change (XRPD of precipitate),[3]; [7],4 (1/2/3/4/5: new Form 1/2/3/4/5)
same,pH of supernatant (final pH),[3]; [7],4.8
same,S: solubility,[3]; [7],7.79 mg/mL
same,FC: form change (XRPD of precipitate),[3]; [9],4 (1/2/3/4/5: new Form 1/2/3/4/5)
same,pH of supernatant (final pH),[3]; [9],5.1
same,S: solubility,[3]; [9],20.6 mg/mL
same,pH of supernatant (final pH),[3]; [14],6.6
same,S: solubility,[3]; [14],0.05 mg/mL
same,pH of supernatant (final pH),[3]; [15],7.2
same,S: solubility,[3]; [15],0.02 mg/mL
same,Moisture Uptake (DVS),[4]; from 30% RH to 80% RH,2.5 (from 30% RH to 80% RH)
same,form change after DVS test (XRPD),[4],crystallinity of fumarate Type A decreased
CC(=O)NCC1CCN(Cc2cc(Oc3ccc(N4CCN(CCC(=O)O)CC4)nc3)nc(-c3cc(Cl)cc(Cl)c3)c2)CC1 [HCl salt Type F],solubility at 24 h,"[1]; 50 mM pH 4.0-6.0 buffers, pH 4, aqueous buffer, thermodynamic from solid, 50 mM pH 4.0-6.0 buffers with pH adjustment, RT, read-out: solubility in pH buffers (overall bound)",< 6800 µg/mL
same,Area % (purity of supernatant),[1]; [5],99.0 Area %
same,FC: form change (XRPD of precipitate),[1]; [5],Low (Low; low crystallinity)
same,"pH (final, after adjustment where adjusted)",[1]; [5],4.0
same,S: solubility,[1]; [6],1520 µg/mL
same,Area % (purity of supernatant),[1]; [7],99.6 Area %
same,FC: form change (XRPD of precipitate),[1]; [7],Low (Low; low crystallinity)
same,"pH (final, after adjustment where adjusted)",[1]; [7],4.9
same,S: solubility,[1]; [8],2320 µg/mL
same,Area % (purity of supernatant),[1]; [9],99.0 Area %
same,FC: form change (XRPD of precipitate),[1]; [9],8 (3/4/6/7/8: new Form 3/4/6/7/8)
same,"pH (final, after adjustment where adjusted)",[1]; [9],5.7
same,S: solubility,[1]; [10],1150 µg/mL
same,Area % (purity of supernatant),[1]; [11],98.9 Area %
same,FC: form change (XRPD of precipitate),[1]; [11],Low (Low; low crystallinity)
same,"pH (final, after adjustment where adjusted)",[1]; [11],5.9*
same,pH before adjustment (in brackets),[1]; [11],(3.9)
same,S: solubility,[1]; [12],430 µg/mL
same,crystallinity after grinding (XRPD),[2],decreased after grinding
same,solubility at 24 h,"[3]; 50 mM pH buffers, pH 3.0-8.0, 21 °C, pH 3, aqueous buffer, thermodynamic from solid, 50 mM pH buffers pH 3.0-8.0, RT, read-out: solubility in pH buffers (overall bound)",< 8000 µg/mL
same,pH of supernatant (final pH),"[3]; 20% Captisol (pH = 5.0, w/v)",3.5
same,S: solubility,"[3]; 20% Captisol (pH = 5.0, w/v)",>48.0^1 mg/mL
same,FC: form change (XRPD of precipitate),[3]; H2O,5 (1/2/3/4/5: new Form 1/2/3/4/5)
same,pH of supernatant (final pH),[3]; H2O,2.4
same,S: solubility,[3]; H2O,4.24 mg/mL
same,FC: form change (XRPD of precipitate),[3]; [13],5 (1/2/3/4/5: new Form 1/2/3/4/5)
same,pH of supernatant (final pH),[3]; [13],2.7
same,S: solubility,[3]; [13],2.77 mg/mL
same,FC: form change (XRPD of precipitate),[3]; [5],Low (Low: low crystallinity)
same,pH of supernatant (final pH),[3]; [5],3.9
same,S: solubility,[3]; [5],1.12 mg/mL
same,FC: form change (XRPD of precipitate),[3]; [7],Low (Low: low crystallinity)
same,pH of supernatant (final pH),[3]; [7],5.0
same,S: solubility,[3]; [7],2.64 mg/mL
same,FC: form change (XRPD of precipitate),[3]; [9],A^
same,pH of supernatant (final pH),[3]; [9],5.8
same,S: solubility,[3]; [9],0.62 mg/mL
same,FC: form change (XRPD of precipitate),[3]; [14],A^+
same,pH of supernatant (final pH),[3]; [14],6.5
same,S: solubility,[3]; [14],0.06 mg/mL
same,FC: form change (XRPD of precipitate),[3]; [15],A^+
same,pH of supernatant (final pH),[3]; [15],7.2
same,S: solubility,[3]; [15],0.02 mg/mL
same,Moisture Uptake (DVS),[4]; from 20% RH to 80% RH,1.4 (from 20% RH to 80% RH)
same,form change after DVS test (XRPD),[4],No form change
